Measured values: PubChem BioAssay AID1963428 (Molecular Pharmacology Branch, DTP, NCI, 2024)

Test system: 171881-019-R-J1-PDC complex spheroid growth, % test/control
Assay: Anticancer human tumor 171881-019-R-J1-PDC patient-derived invasive breast carcinoma cell line growth inhibition [Asc]
Details: for IC50: curve of first compound; for viability, T/C: stronger effect = lower value
Description: Multicellular complex tumor spheroid response to apoptosis pathway targeting inhibitors Alrizomadlin, Pelcitoclax, and Dasminapant in combination with a variety of drugs and investigational agents in selected tumor cell lines
The MDM2 inhibitor alrizomadlin, the Bcl-2/Bcl-xL inhibitor pelcitoclax, and the IAPs inhibitor dasminapant were evaluated both individually and in combination with standard of care and investigational anticancer small molecules within a complex spheroid model of solid tumors. . Complex spheroids include a stromal component modeled by human endothelial cells (HUVEC) and fibroblasts modeled by human mesenchymal stem cells (MSCs). The concentration ranges selected for each drug and investigational agent were based upon clinically achievable concentrations if the clinical Cmax of the agent was known.
Compounds. The drugs and investigational agents: alrizomadlin (APG-115; NSC831270), pelcitoclax (APG-1252; NSC835773), dasminapant (APG-1387;NSC834197), TAK-243 (NSC785004), copanlisib (NSC809693), olaparib (NSC753686), talazoparib (NSC767125), cobimetinib (NSC 768068), eltanexor (KPT-8602, NSC 794443), abemaciclib (NSC 768073), sotorasib (NSC818433), adagrasib (NSC 831453), MRTX-1133 (NSC 836407), Iadademestat (ORY1001, NSC 806812), and RMC-4630 (NSC839698), were obtained from the NCI Developmental Therapeutics Program Chemical Repository. The FDA-approved anticancer drug set is available from the Developmental Therapeutics Program at https://dtp.cancer.gov/organization/dscb/obtaining/available plates.htm. […] The stock solutions were prepared in dimethyl sulfoxide (DMSO, Sigma-Aldrich, St. Louis, MO, cat. D2650) at 800-fold the tested concentration and stored at -70 degrees C prior to their use. All drugs and investigational agents were tested over a range starting from a high concentration at or near the clinical Cmax and decreasing in half-log increments. If the clinical Cmax for an agent had not been determined, the highest concentration tested was 10 microM.
The patient-derived cancer (PDC) cell lines include five colon adenocarcinomas: 186277-243-T-J2-PDC, 616215-338-R-J1-PDC, 439559-082-T-J2-PDC, 463943-066-T-J2-PDC, and 519858-162-T-J1-PDC; three pancreatic carcinomas: 323965-272-R-J2-PDC, 521955-158-R6-J3-PDC, and 521955-158-R2-J5-PDC; two uterine sarcomas: 327498-152-R-J2-PDC and 993429-296-R-J1-PDC; two rhabdomyosarcomas: 755483-174-R-J1-PDC and 772245-204-R-J1-PDC; two soft tissue sarcomas: 126254-015-R-J1-PDC and 494315-158-R-J1-PDC; two malignant fibrous histiocytomas: 317291-083-R-J1-PDC and 596521-263-R-J1-PDC; two breast carcinomas: 171881-019-R-J1-PDC and 885512-296-R-J2-PDC; and one ovarian carcinoma: 6556581-035-R-J-PDC were obtained from the NCI PDMR, (https://pdmr.cancer.gov). The established cell lines HSSY-2 synovial sarcoma (RRID:CVCL 8719), SYO-1 synovial sarcoma (RRID:CVCL_7146), MPNST malignant peripheral neural sheath tumor were obtained from the Sloan Kettering Institute. The following established cell lines were purchased from the American Type Culture Collection (ATCC, Manassas, VA), Sor the received from the NCI repository:, PANC-1 pancreatic carcinoma (CRL-1469, RRID:CVCL_0480), OVCAR-5 ovarian carcinoma (RRID:CVCL_1628), OVCAR-8 ovarian carcinoma (RRID:CVCL_1629), , MCF-7 breast carcinoma (CRL-12584, RRID:CVCL_0031), MDA-MB-231 breast carcinoma (CRL-12532, RRID:CVCL_0062), NCI-H1876 small cell lung carcinoma (CRL-5902, RRID:CVCL_1503), NCI-H510A small cell lung carcinoma (HTB-184, RRID:CVCL_1565), NCI-H1417 (CRL-5869, RRID:CVCL_1469), and NCI-H196 small cell lung carcinoma (CRL-5823, RRID:CVCL_1509). Dr. Peter Houghton (Greehey Children's Cancer Research Institute, University of Texas Health Science Center, San Antonio, TX) provided Rh-18 rhabdomyosarcoma (RRID:CVCL_1659). Pooled donor human umbilical vein endothelial cells (HUVEC, Lonza, cat. CC-2519) and human mesenchymal stem cells (hMSC, Lonza, cat. PT-2501) were purchased from Lonza (Walkersville, MD).
Cell Culture. […]

[1] = second compound 0.03 µM, first compound 0.00316 µM
[2] = second compound 0.03 µM, first compound 0.01 µM
[3] = second compound 0.03 µM, first compound 0.0316 µM
[4] = second compound 0.03 µM, first compound 0.1 µM
[5] = second compound 0.0949 µM, first compound 0.00316 µM
[6] = second compound 0.0949 µM, first compound 0.01 µM
[7] = second compound 0.0949 µM, first compound 0.0316 µM
[8] = second compound 0.0949 µM, first compound 0.1 µM
[9] = second compound 0.3 µM, first compound 0.00316 µM
[10] = second compound 0.3 µM, first compound 0.01 µM
[11] = second compound 0.3 µM, first compound 0.0316 µM
[12] = second compound 0.3 µM, first compound 0.1 µM
[13] = second compound 0.949 µM, first compound 0.00316 µM
[14] = second compound 0.949 µM, first compound 0.01 µM
[15] = second compound 0.949 µM, first compound 0.0316 µM
[16] = second compound 0.949 µM, first compound 0.1 µM
[17] = second compound 3 µM, first compound 0.00316 µM
[18] = second compound 3 µM, first compound 0.01 µM
[19] = second compound 3 µM, first compound 0.0316 µM
[20] = second compound 3 µM, first compound 0.1 µM
[21] = second compound 0.03 µM, first compound 0.316 µM
[22] = second compound 0.03 µM, first compound 1 µM
[23] = second compound 0.0949 µM, first compound 0.316 µM
[24] = second compound 0.0949 µM, first compound 1 µM
[25] = second compound 0.3 µM, first compound 0.316 µM
[26] = second compound 0.3 µM, first compound 1 µM
[27] = second compound 0.949 µM, first compound 0.316 µM
[28] = second compound 0.949 µM, first compound 1 µM
[29] = second compound 3 µM, first compound 0.316 µM
[30] = second compound 3 µM, first compound 1 µM
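Wherever viability, T/C is given: spheroids exposed to compounds for 7 days.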

Row | IC50 (second compound 0.03 µM) [nM] | IC50 (second compound 0.0949 µM) [nM] | IC50 (second compound 0.3 µM) [nM] | IC50 (second compound 0.949 µM) [nM] | IC50 (second compound 3 µM) [nM] | SMILES | viability, T/C [1] [%] | viability, T/C [2] [%] | viability, T/C [3] [%] | viability, T/C [4] [%] | viability, T/C [5] [%] | viability, T/C [6] [%] | viability, T/C [7] [%] | viability, T/C [8] [%] | viability, T/C [9] [%] | viability, T/C [11] [%] | viability, T/C [12] [%] | viability, T/C [15] [%] | viability, T/C [16] [%] | viability, T/C [19] [%] | viability, T/C [20] [%] | also measured
1 | > 100 | > 100 | > 100 | > 100 | > 100 | Cn1ncnc1[C@H]1c2n[nH]c(=O)c3cc(F)cc(c23)N[C@@H]1c1ccc(F)cc1 + CCN1C(C(=O)NC23CCC(C(=O)O)(CC2)CC3)C(c2cccc(Cl)c2F)C2(C(=O)Nc3cc(Cl)ccc32)C12CCCCC2 | 107 | 103 | 105 | 96.8 | 95.8 | 111 | 104 | 114 | 101 | 109 | 109 | 115 | 120 | 110 | 114 | viability, T/C (second compound 0.03 µM, first compound 0.000316 µM): 93.2%; viability, T/C (second compound 0.03 µM, first compound 0.001 µM): 110%; viability, T/C (second compound 0.0949 µM, first compound 0.000316 µM): 102%; viability, T/C (second compound 0.0949 µM, first compound 0.001 µM): 95.5%; viability, T/C (second compound 0.3 µM, first compound 0.000316 µM): 99.5%; viability, T/C (second compound 0.3 µM, first compound 0.001 µM): 126%; viability, T/C [10]: 104%; viability, T/C (second compound 0.949 µM, first compound 0.000316 µM): 115%; viability, T/C (second compound 0.949 µM, first compound 0.001 µM): 115%; viability, T/C [13]: 120%; viability, T/C [14]: 108%; viability, T/C (second compound 3 µM, first compound 0.000316 µM): 119%; viability, T/C (second compound 3 µM, first compound 0.001 µM): 111%; viability, T/C [17]: 115%; viability, T/C [18]: 110%
2 | > 10000 | > 10000 | > 10000 | > 10000 | > 10000 | O=C(c1cc(Cc2n[nH]c(=O)c3ccccc23)ccc1F)N1CCN(C(=O)C2CC2)CC1 + CCN1C(C(=O)NC23CCC(C(=O)O)(CC2)CC3)C(c2cccc(Cl)c2F)C2(C(=O)Nc3cc(Cl)ccc32)C12CCCCC2 | – | – | 123 | 101 | – | – | 113 | 92.5 | – | 102 | 116 | 110 | 103 | 108 | 121 | viability, T/C [21]: 102%; viability, T/C [22]: 105%; viability, T/C (second compound 0.03 µM, first compound 3.16 µM): 94.5%; viability, T/C (second compound 0.03 µM, first compound 10 µM): 103%; viability, T/C [23]: 115%; viability, T/C [24]: 97.5%; viability, T/C (second compound 0.0949 µM, first compound 3.16 µM): 110%; viability, T/C (second compound 0.0949 µM, first compound 10 µM): 113%; viability, T/C [25]: 117%; viability, T/C [26]: 95.1%; viability, T/C (second compound 0.3 µM, first compound 3.16 µM): 114%; viability, T/C (second compound 0.3 µM, first compound 10 µM): 107%; viability, T/C [27]: 105%; viability, T/C [28]: 102%; viability, T/C (second compound 0.949 µM, first compound 3.16 µM): 103%; viability, T/C (second compound 0.949 µM, first compound 10 µM): 108%; viability, T/C [29]: 101%; viability, T/C [30]: 94.9%; viability, T/C (second compound 3 µM, first compound 3.16 µM): 113%; viability, T/C (second compound 3 µM, first compound 10 µM): 106%
3 | 511 | 660 | 581 | 455 | 286 | O=C(c1ccc(F)c(F)c1Nc1ccc(I)cc1F)N1CC(O)([C@@H]2CCCCN2)C1 + CCN1C(C(=O)NC23CCC(C(=O)O)(CC2)CC3)C(c2cccc(Cl)c2F)C2(C(=O)Nc3cc(Cl)ccc32)C12CCCCC2 | 102 | 100 | 113 | 153 | 91.6 | 91.1 | 151 | 151 | 87.6 | 132 | 144 | 157 | 127 | 174 | 111 | viability, T/C [21]: 60.5%; viability, T/C [22]: 35.2%; viability, T/C [23]: 69.5%; viability, T/C [24]: 39%; viability, T/C [10]: 108%; viability, T/C [25]: 61.3%; viability, T/C [26]: 39.9%; viability, T/C [13]: 96.2%; viability, T/C [14]: 111%; viability, T/C [27]: 56%; viability, T/C [28]: 37%; viability, T/C [17]: 112%; viability, T/C [18]: 128%; viability, T/C [29]: 48.2%; viability, T/C [30]: 40.1%
